Data on 23 compounds can be found in patent US8901309B2, “Fused triazoles for the treatment or prophylaxis of mild cognitive impairment” (Takeda Pharmaceutical Company Limited, priority 2010, dated 2014).

In the first test the test system is Aβ42 in hippocampi of C57BL/6J mice. Put plainly: Hippocampal soluble Aβ42 ELISA in mice after oral administration. The format is in vivo, mouse. The settings on record: 10 mg/kg orally, hippocampi isolated 3 hours after administration, soluble Aβ42 by ELISA, 10 mg/kg. On the procedure: Measurement of Amyloid β Production Inhibition Rate Using Primary Nerve Cell
C57BL/6J mice (7-10 weeks old) were purchased from CLEA Japan Inc. Mice were housed in groups and kept on a 12h-light; 12h-dark schedule. All mice were given ad libitum access to food and water.
Each test compound was reconstituted in solubilization buffer ([DMSO (Wako)]: [10% Cremophor (Nakarai)+30% polyethylene glycol 400 (Wako)+60% 2 mol/L Citrate buffer (Wako)]=1:9) and orally administrated at 10 mg/kg.
Hippocampi was isolated from animals, 3 hours after test compounds were orally administrated. Hippocampi were homogenized in ice-cold Tris-extraction buffer (50 mmol/L Tris-HCl, pH 7.2, 200 mmol/L sodium chloride, 2% protease-free bovine serum albumin, and 0.01% sodium merthiolate) containing protease inhibitor cocktails (Roche, Switzerland). After centrifugation at 15,000 rpm for 15 minutes, the supernatants were subjected to two-site sandwich ELISA to measure amount of soluble Aβ. Aβ42 was quantitated by two-site sandwich ELISA using BNT77, which recognizes Aβ11-28, as a capture antibody and BC05-HRP as a detector antibody, respectively.
As for `COc1nc(-c2nnc3n2CCCC3(Oc2ccc(F)c(C(F)(F)F)c2)C(C)(C)O)ccc1-n1cnc(C)c1` (centres unmarked) [Example 2, 2-{8-[4-fluoro-3-(trifluoromethyl)phenoxy]-3-[6-methoxy-5-(4-methyl-1H-imidazol-1-yl)pyridin-2-yl]-5,6,7,8-tetrahydro[1,2,4]triazolo[4,3-a]pyridin-8-yl}propan-2-ol], the “Aβ42 production inhibitory activity (% inhibition)” value is listed as 48 % inhibition.
Turning to `COc1cc(-c2nnc3n2CCCC3(Oc2cc(F)cc(F)c2)C(C)(C)O)ccc1-c1cnc(C)o1` (centres unmarked) [Example 155, 2-{8-(3,5-difluorophenoxy)-3-[3-methoxy-4-(2-methyl-1,3-oxazol-5-yl)phenyl]-5,6,7,8-tetrahydro[1,2,4]triazolo[4,3-a]pyridin-8-yl}propan-2-ol], the “Aβ42 production inhibitory activity (% inhibition)” value worked out at 56 % inhibition.
Still for that read-out and setting: next, `COc1cc(-c2nnc3n2CCCC3(Oc2cccc(C(F)(F)F)c2)C(C)(C)O)ccc1-c1cnc(C)o1` (centres unmarked) [Example 130, 2-{3-[3-methoxy-4-(2-methyl-1,3-oxazol-5-yl)phenyl]-8-[3-(trifluoromethyl)phenoxy]-5,6,7,8-tetrahydro[1,2,4]triazolo[4,3-a]pyridin-8-yl}propan-2-ol]: 59 % inhibition; `COc1cc(-c2nnc3n2CCCC3(Oc2ccc(C(F)(F)F)cc2)C(C)(C)O)ccc1-c1cnc(C)o1` (centres unmarked) [Example 132, 2-{3-[3-methoxy-4-(2-methyl-1,3-oxazol-5-yl)phenyl]-8-[4-(trifluoromethyl)phenoxy]-5,6,7,8-tetrahydro[1,2,4]triazolo[4,3-a]pyridin-8-yl}propan-2-ol]: 58 % inhibition; `COc1cc(-c2nnc3n2CCCC3(Oc2ccc(F)c(F)c2)C(C)(C)O)ccc1-c1cnc(C)o1` (centres unmarked) [Example 92, 2-{8-(3,4-difluorophenoxy)-3-[3-methoxy-4-(2-methyl-1,3-oxazol-5-yl)phenyl]-5,6,7,8-tetrahydro[1,2,4]triazolo[4,3-a]pyridin-8-yl}propan-2-ol]: 32 % inhibition.

Still in this test, the particulars now being: Mus musculus, po, 3 h, 10 mg/kg orally, hippocampi isolated 3 hours after administration, soluble Aβ42 by ELISA, read-out: Aβ42 production inhibitory activity (% inhibition).
Regarding `COc1nc(-c2nnc3n2CCCC3(Oc2ccc(Cl)c(F)c2)C(C)(C)O)ccc1-n1cnc(C)c1` (centres unmarked) [Example 1, 2-{8-(4-chloro-3-fluorophenoxy)-3-[6-methoxy-5-(4-methyl-1H-imidazol-1-yl)pyridin-2-yl]-5,6,7,8-tetrahydro[1,2,4]triazolo[4,3-a]pyridin-8-yl}propan-2-ol], the inhibition in vivo at 10 mg/kg is 40%.
On the same count and under the same terms, with `COc1cc(-c2nnc3n2CCCC3(Oc2cc(F)c(F)c(F)c2)C(C)(C)O)c(F)cc1-c1cnc(C)o1` (centres unmarked) [Example 162, 2-{3-[2-fluoro-5-methoxy-4-(2-methyl-1,3-oxazol-5-yl)phenyl]-8-(3,4,5-trifluorophenoxy)-5,6,7,8-tetrahydro[1,2,4]triazolo[4,3-a]pyridin-8-yl}propan-2-ol] the figure was 26%.
Same read-out and setting: next, `COc1nc(-c2nnc3n2CCCC3(Oc2cc(F)c(F)c(F)c2)C(C)(C)O)ccc1-c1cnc(C)o1` (centres unmarked) [Example 172, 2-{3-[6-methoxy-5-(2-methyl-1,3-oxazol-5-yl)pyridin-2-yl]-8-(3,4,5-trifluorophenoxy)-5,6,7,8-tetrahydro[1,2,4]triazolo[4,3-a]pyridin-8-yl}propan-2-ol]: 35%; `COc1cc(-c2nnc3n2CCCC3(CC2CC2)c2ccc(F)c(F)c2)ccc1-c1cnc(C)o1` (centres unmarked) [Example 21, optically active 8-(cyclopropylmethyl)-8-(3,4-difluorophenyl)-3-[3-methoxy-4-(2-methyl-1,3-oxazol-5-yl)phenyl]-5,6,7,8-tetrahydro[1,2,4]triazolo[4,3-a]pyridine]: 39%.
As for `COc1nc(-c2nnc3n2CCCC3(Oc2cc(F)c(F)c(F)c2)C(C)(C)O)ccc1-n1cnc(C)c1` (centres unmarked) [Example 134, 2-{3-[6-methoxy-5-(4-methyl-1H-imidazol-1-yl)pyridin-2-yl]-8-(3,4,5-trifluorophenoxy)-5,6,7,8-tetrahydro[1,2,4]triazolo[4,3-a]pyridin-8-yl}propan-2-ol], the inhibition in vivo at 10 mg/kg was determined as 31%.
On the same count and under the same terms, with `COc1nc(-c2nnc3n2CCC[C@]3(Oc2cc(F)c(F)c(F)c2)C(C)(C)O)ccc1-n1cnc(C)c1` [Example 152, 2-{(8R)-3-[6-methoxy-5-(4-methyl-1H-imidazol-1-yl)pyridin-2-yl]-8-(3,4,5-trifluorophenoxy)-5,6,7,8-tetrahydro[1,2,4]triazolo[4,3-a]pyridin-8-yl}propan-2-ol] the figure was 57%; with `COc1cc(-c2nnc3n2CCCC3(Oc2ccc(F)c(F)c2)C(C)(C)O)ccc1-c1cnc(C)o1` (centres unmarked) [Example 124, 2-{8-(3,4-difluorophenoxy)-3-[3-methoxy-4-(2-methyl-1,3-oxazol-5-yl)phenyl]-5,6,7,8-tetrahydro[1,2,4]triazolo[4,3-a]pyridin-8-yl}propan-2-ol], 41%.
In the case of `COc1cc(-c2nnn3c2CCCC3(Oc2cc(F)c(F)c(F)c2)C(C)(C)O)ccc1-c1cnc(C)o1` (centres unmarked) [Example 186, 2-{3-[3-methoxy-4-(2-methyl-1,3-oxazol-5-yl)phenyl]-7-(3,4,5-trifluorophenoxy)-4,5,6,7-tetrahydro[1,2,3]triazolo[1,5-a]pyridin-7-yl}propan-2-ol], the inhibition in vivo at 10 mg/kg was 22%.
As to `COc1cc(-c2nnc3n2CCCC3(COc2ccc(Cl)cc2)C(C)(C)O)ccc1-c1cnc(C)o1` (centres unmarked) [Example 127, 2-{8-[(4-chlorophenoxy)methyl]-3-[3-methoxy-4-(2-methyl-1,3-oxazol-5-yl)phenyl]-5,6,7,8-tetrahydro[1,2,4]triazolo[4,3-a]pyridin-8-yl}propan-2-ol], the inhibition in vivo at 10 mg/kg was 21%.
On to `COc1cc(-c2nnc3n2CCCC3(Oc2cc(F)c(F)c(F)c2)C(C)(C)O)ccc1-c1cnn(C)c1` (centres unmarked) [Example 144, 2-{3-[3-methoxy-4-(1-methyl-1H-pyrazol-4-yl)phenyl]-8-(3,4,5-trifluorophenoxy)-5,6,7,8-tetrahydro[1,2,4]triazolo[4,3-a]pyridin-8-yl}propan-2-ol], for which the inhibition in vivo at 10 mg/kg worked out at 31%.
On the same count and under the same terms, with `COc1cc(-c2nnc3n2CCC[C@]3(Oc2cc(F)c(F)c(F)c2)C(C)(C)O)ccc1-c1cnc(C)o1` [Example 122, 2-{(8R)-3-[3-methoxy-4-(2-methyl-1,3-oxazol-5-yl)phenyl]-8-(3,4,5-trifluorophenoxy)-5,6,7,8-tetrahydro[1,2,4]triazolo[4,3-a]pyridin-8-yl}propan-2-ol] the figure was 54%.
On the same count and under the same terms, with `CCC(O)(CC)C1(Oc2ccc(Cl)c(F)c2)CCCn2c(-c3ccc(-c4cnc(C)o4)c(OC)c3)nnc21` (centres unmarked) [Example 120, 3-{8-(4-chloro-3-fluorophenoxy)-3-[3-methoxy-4-(2-methyl-1,3-oxazol-5-yl)phenyl]-5,6,7,8-tetrahydro[1,2,4]triazolo[4,3-a]pyridin-8-yl}pentan-3-ol] the figure was 21%.
Still for that read-out and setting: with `COc1cc(-c2nnc3n2CCCC3(Oc2ccc(Cl)c(F)c2)C(C)(C)O)ccc1-c1cnc(C)o1` (centres unmarked) [Example 111, 2-{8-(4-chloro-3-fluorophenoxy)-3-[3-methoxy-4-(2-methyl-1,3-oxazol-5-yl)phenyl]-5,6,7,8-tetrahydro[1,2,4]triazolo[4,3-a]pyridin-8-yl}propan-2-ol] the figure was 46%.
Consider `COc1cc(-c2nnc3n2CCCC3(Oc2cccc(C(F)(F)F)c2)C(C)(C)O)ccc1-c1cnc(C)o1` (centres unmarked) [Example 103, 2-{3-[3-methoxy-4-(2-methyl-1,3-oxazol-5-yl)phenyl]-8-[3-(trifluoromethyl)phenoxy]-5,6,7,8-tetrahydro[1,2,4]triazolo[4,3-a]pyridin-8-yl}propan-2-ol], for which the inhibition in vivo at 10 mg/kg stood at 42%.
For the compound `COc1cc(-c2nnc3n2CCCC3(Oc2ccc(Cl)c(C(F)(F)F)c2)C(C)(C)O)ccc1-n1cnc(C)n1` (centres unmarked) [Example 139, 2-{8-[4-chloro-3-(trifluoromethyl)phenoxy]-3-[3-methoxy-4-(3-methyl-1H-1,2,4-triazol-1-yl)phenyl]-5,6,7,8-tetrahydro[1,2,4]triazolo[4,3-a]pyridin-8-yl}propan-2-ol], the inhibition in vivo at 10 mg/kg was 22%.
Regarding `COc1cc(-c2nnc3n2CCCC3(Oc2cc(F)c(F)c(F)c2)C(C)(C)O)ccc1-c1cnc(C)o1` (centres unmarked) [Example 99, 2-{3-[3-methoxy-4-(2-methyl-1,3-oxazol-5-yl)phenyl]-8-(3,4,5-trifluorophenoxy)-5,6,7,8-tetrahydro[1,2,4]triazolo[4,3-a]pyridin-8-yl}propan-2-ol], the inhibition in vivo at 10 mg/kg is 34%.
Still for that read-out and setting: with `COc1nc(-c2nnc3n2CCCC3(Oc2ccc(F)c(C(F)(F)F)c2)C(C)(C)O)ccc1-n1cnc(C)c1` (centres unmarked) [Example 157, 2-{8-[4-fluoro-3-(trifluoromethyl)phenoxy]-3-[6-methoxy-5-(4-methyl-1H-imidazol-1-yl)pyridin-2-yl]-5,6,7,8-tetrahydro[1,2,4]triazolo[4,3-a]pyridin-8-yl}propan-2-ol] the figure was 61%; with `COc1cc(-c2nnc3n2CCCC3(Oc2cc(F)cc(F)c2)C(C)(C)O)ccc1-c1cnc(C)o1` (centres unmarked) [Example 141, 2-{8-(3,5-difluorophenoxy)-3-[3-methoxy-4-(2-methyl-1,3-oxazol-5-yl)phenyl]-5,6,7,8-tetrahydro[1,2,4]triazolo[4,3-a]pyridin-8-yl}propan-2-ol], 46%.
